Series [1] relates to Septoria tritici. Nature of the series: Test F: wheat leaf blotch, preventive spray on wheat seedlings, visual disease rating. Particulars: 100 = 100% disease control; for Test F rating (% disease control): preventive spray, rating without asterisk. The format is in vivo. The text has this: (§1) A hyphen (-) indicates no test results.
For series [2], the system named is Puccinia recondita f. sp. tritici. Nature of the series: Test G: wheat leaf rust, spray after inoculation (curative) on wheat seedlings, visual disease rating. In kind it is in vivo. Particulars: 100 = 100% disease control; for Test G rating (% disease control): spray after inoculation, rating without asterisk.
Description: as §1

The test system is the same in series [3]. Nature of the series: Test H: wheat leaf rust, preventive spray on wheat seedlings, visual disease rating. Conditions: 100 = 100% disease control; for Test H rating (% disease control): wheat leaf rust, preventive spray, rating without asterisk.
The test system of series [4] is Botrytis cinerea. Briefly: Test A: tomato Botrytis, preventive spray on tomato seedlings, visual disease rating. Conditions: 100 = 100% disease control; for Test A rating (% disease control): tomato Botrytis, preventive spray, 0 = no control relative to controls, rating without asterisk.
Description: General protocol for preparing test suspensions for Tests A-I: the test compounds were first dissolved in acetone in an amount equal to 3% of the final volume and then suspended at the desired concentration (in ppm) in acetone and purified water (50/50 mix by volume) containing 250 ppm of the surfactant Trem® 014 (polyhydric alcohol esters). The resulting test suspensions were then used in Tests A-I. Each test was conducted in triplicate, and the results were averaged. Spraying a 200 ppm test suspension to the point of run-off on the test plants was the equivalent of a rate of about 800 g/ha. Unless otherwise indicated, the rating values indicate a 200 ppm test suspension was used. (An asterisk “*” next to the rating value indicates a 40 ppm test suspension was used.)
The test suspension was sprayed to the point of run-off on tomato seedlings. The following day the seedlings were inoculated with a spore suspension of Botrytis cinerea (the causal agent of tomato Botrytis) and incubated in saturated atmosphere at 20° C. for 48 h, and then moved to a growth chamber at 24° C. for 3 additional days, after which time visual disease ratings were made.
Series [5] deals with Alternaria solani. Briefly: Test B: tomato early blight, preventive spray on tomato seedlings, visual disease rating. Conditions: for Test B rating (% disease control): tomato early blight, preventive spray, 100 = 100% disease control, rating without asterisk.
Series [6] concerns Blumeria graminis f. sp. tritici. Briefly: Test I: wheat powdery mildew, preventive spray on wheat seedlings, visual disease rating. Conditions: 100 = 100% disease control; for Test I rating (% disease control): wheat powdery mildew, preventive spray, rating without asterisk.
The test system of series [7] is Septoria nodorum. Nature of the series: Test E: Septoria glume blotch, preventive spray on wheat seedlings, visual disease rating. Particulars: 100 = 100% disease control; for Test E rating (% disease control): Septoria glume blotch on wheat, preventive spray, rating without asterisk.
Series [8] has as its system Septoria tritici. Nature of the series: Tests N1 and N2: growth inhibition of Septoria tritici on solid medium in 96-well plates, absorbance at 600 nm, observed and Colby expected. The format is cell-based. Conditions: Zymoseptoria tritici. The text has this:
Tests N1 and N2 involved evaluation of mixtures of Compound 81 with 2-[(3-bromo-8-methyl-6-quinolinyl)oxy]-N-(1,1-dimethyl-2-propyn-1-yl)-2-(methylthio)acetamide (Compound A1) and 2-[(3-bromo-6-quinolinyl)oxy]-N-(1,1-dimethylethyl)butanamide (Compound A2), respectively, for inhibiting the growth of Septoria tritici (the causal agent of wheat leaf blotch). The general protocol for preparing test compositions was as follows. Compound 81 (Tests N1 and N2), Compound A1 (Test N1) and Compound A2 (Test N2) were obtained as unformulated, technical-grade materials. Unformulated test compounds were first dissolved in DMSO at the appropriate concentration to provide the desired concentration (in μM) after mixing with the fungal growth medium in the wells of 96-well plates containing 200 μL fungal growth medium per well. The ranges of compound concentrations were chosen to span a range of inhibitory activity from 0 to near 100% to identify any synergistic action when Septoria tritici was treated with compounds added in combination. The DMSO solutions of the test compounds were added to the wells prior to addition of the fungal growth medium.
The fungal growth solid medium was prepared by forming an aqueous mixture containing dipotassium hydrogen phosphate (3.0 g/L), potassium dihydrogen phosphate (4.0 g/L), sodium chloride (0.5 g/L), ammonium chloride (1.0 g/L), magnesium sulfate heptahydrate ([…]) and calcium chloride dihydrate (0.01 g/L), also containing 1 mL/L of a trace element solution (manganese sulfate hydrate (0.1 mg/mL), zinc sulfate heptahydrate (0.2 mg/mL), copper(II) sulfate pentahydrate (0.2 mg/mL), iron(II) sulfate heptahydrate (0.2 mg/mL), sodium molybdate dihydrate (0.1 mg/mL), cobalt(II) sulfate heptahydrate (0.06 mg/mL), boric acid (0.08 mg/mL)), and supplemented with 50 μL/L of a biotin stock solution (0.1 mg/mL). The pH was adjusted to 6.8 with aqueous 1 M sodium carbonate solution. The mixture was further supplemented with 1 g/L of yeast extract, and GELRITE gellan gum (Kelco) (4 g/L) was added. Sufficient water was added to bring the volume to 90% of final volume (e.g., 900 mL volume for preparation of 1 L of fungal growth medium). The mixture was autoclaved. On cooling to 60° C., 100 mL/L of aqueous dextrose solution (10 g/L), 500 μL/L of aqueous ampicillin solution (100 mg/mL) and 500 μL/L of rifampicin solution (10 mg/mL in DMSO) were added to provide the final volume of fungal growth medium, which was then dispensed while still warm using a microliter pipette to the wells of the 96-well plates. The dispensed fungal growth medium in each well was agitated using the tip of the dispensing pipette to mix it with the DMSO solution containing the test compounds.
After the fungal growth medium in the wells had cooled to room temperature and solidified, the top surface of the growth medium in each well was inoculated with 20 μL of a suspension of fungus containing 8×10^4 cells. Following a 2 h period of drying in a sterile hood, plates were placed in a dark incubator at 25° C. for 5 d.
Fungal growth was assessed on a plate reader set to measure absorbance of 600 nm light. The percent growth inhibition observed (Obsd.) in Tests N1 and N2, as well as the percent growth inhibition expected (Exp.) from calculation using the Colby equation, are listed in Tables L and M, respectively.

For series [9], the system named is Phytophthora infestans. Nature of the series: whole plant or invertebrate. Conditions: tomato late blight, preventive spray; 100 = 100% disease control; rating without asterisk. In kind it is in vivo.

Structures are written as SMILES.

As for `Cc1nn(C)c(Nc2ccc(Cl)cc2F)c1-c1c(F)cc(C#N)cc1F` [Compound 40, 4-[5-[(4-chloro-2-fluorophenyl)amino]-1,3-dimethyl-1H-pyrazol-4-yl]-3,5-difluorobenzonitrile], the melting point lay within 93 to 95 °C. This compound yielded a pest or weed control at 200 µg/mL in series [1] (Zymoseptoria tritici, 0 = no disease control relative to the controls) of 100%. Moreover, the pest or weed control at 200 µg/mL in [2] (sprayed after inoculation, 0 = no disease control) worked out at 63%. Further, in series [3] (read-out: Test H rating (disease control), wheat leaf rust, sprayed the day before inoculation, 0 = no disease control), the pest or weed control at 200 µg/mL worked out at 100%. Further, the pest or weed control at 200 µg/mL in series [4] (Botrytis cinerea, in Solanum lycopersicum, read-out: Test A rating (disease control), tomato Botrytis, 0 = no disease control relative to the controls) was 99%. In addition, the pest or weed control at 200 µg/mL in series [5] (Alternaria solani, in Solanum lycopersicum, read-out: Test B rating (disease control)) amounted to 99%. Moreover, in series [6] (Blumeria graminis, in Triticum aestivum, read-out: Test I rating (disease control), wheat powdery mildew, 0 = no disease control relative to the controls), the pest or weed control at 200 µg/mL turned out to be 100%. In addition, in [7] (Parastagonospora nodorum, in Triticum aestivum, read-out: Test E rating (disease control), Septoria glume blotch, 0 = no disease control relative to the controls), the pest or weed control at 200 µg/mL turned out to be 100%.

Consider `Cc1nn(C)c(Nc2c(F)cc(F)cc2Cl)c1-c1ccc(C#N)cc1F` [Compound 238, 4-[5-[(2-chloro-4,6-difluorophenyl)amino]-1,3-dimethyl-1H-pyrazol-4-yl]-3-fluorobenzonitrile], for which the melting point fell in the range of 177 to 179 °C.

Take `Cc1nn(C)c(Nc2c(F)cccc2Br)c1-c1ccc(F)cc1Br` [Compound 244, 4-(2-bromo-4-fluorophenyl)-N-(2-bromo-6-fluorophenyl)-1,3-dimethyl-1H-pyrazol-5-amine]: the melting point fell in the range of 154 to 156 °C.

In turn, `Cc1nn(C)c(Nc2c(F)cccc2Br)c1-c1ccc(F)cc1F` [Compound 245, N-(2-bromo-6-fluorophenyl)-4-(2,4-difluorophenyl)-1,3-dimethyl-1H-pyrazol-5-amine] gave a melting point of 149 to 151 °C.

`Cc1nn(C)c(Nc2c(F)cccc2Br)c1-c1c(F)cccc1F` [Compound 247, N-(2-bromo-6-fluorophenyl)-4-(2,6-difluorophenyl)-1,3-dimethyl-1H-pyrazol-5-amine] showed a melting point of 127 to 129 °C.

For `C#CC(C)(C)NC(=O)C(Oc1cc(C)c2ncc(Br)cc2c1)SC` (centres unmarked) [Compound A1, 2-[(3-bromo-8-methyl-6-quinolinyl)oxy]-N-(1,1-dimethyl-2-propyn-1-yl)-2-(methylthio)acetamide, reference compound], the inhibition at 0.00032 µM in series [8] (Compound A1 alone 0.00032 μM, read-out: % inhibition Obsd. (Test N1)) was determined as 3%. Also, the inhibition at 0.0016 µM in [8] (Compound A1 alone 0.0016 μM, read-out: % inhibition Obsd. (Test N1)) worked out at 5%. Besides, the inhibition at 0.008 µM in [8] (Compound A1 alone 0.008 μM, read-out: % inhibition Obsd. (Test N1)) came out at 14.5%. For the same compound, the inhibition at 0.04 µM in series [8] (Compound A1 alone 0.04 μM, read-out: % inhibition Obsd. (Test N1)) turned out to be 97%. Further, the inhibition at 0.2 µM in series [8] (Compound A1 alone 0.2 μM, read-out: % inhibition Obsd. (Test N1)) was determined as 98%.

Turning to `CCC(Oc1ccc2ncc(Br)cc2c1)C(=O)NC(C)(C)C` (centres unmarked) [Compound A2, 2-[(3-bromo-6-quinolinyl)oxy]-N-(1,1-dimethylethyl)butanamide, reference compound], the inhibition at 0.032 µM in series [8] (Compound A2 alone 0.032 μM, read-out: % inhibition Obsd. (Test N2)) was found to be 0%. Also, in series [8] (Compound A2 alone 0.16 μM, read-out: % inhibition Obsd. (Test N2)), the inhibition at 0.16 µM amounted to 6.5%. The inhibition at 0.8 µM in series [8] (Compound A2 alone 0.8 μM, read-out: % inhibition Obsd. (Test N2)) came out at 11.5%. In addition, in series [8] (Compound A2 alone 4 μM, read-out: % inhibition Obsd. (Test N2)), the inhibition at 4 µM was found to be 95%. The inhibition at 20 µM in series [8] (Compound A2 alone 20 μM, read-out: % inhibition Obsd. (Test N2)) came to 96%.

As to `Cc1nn(C)c(Nc2c(F)cc(Cl)cc2Br)c1-c1ccc(F)cc1Cl` [compound 186], in [9], the “Test C rating (% disease control)” value is 0%. For the same compound, the “Test F rating (% disease control)” value in series [1] was found to be 100%. In addition, the “Test G rating (% disease control)” value in [2] was 100%. Further, the “Test H rating (% disease control)” value in series [3] amounted to 100%. Further, the “Test A rating (% disease control)” value in series [4] worked out at 100%. Also, the “Test B rating (% disease control)” value in [5] was found to be 100%. In series [6], the “Test I rating (% disease control)” value was 100%. In [7], the “Test E rating (% disease control)” value amounted to 100%.

`CCOc1ccc(-c2c(C)nn(C)c2Nc2c(Cl)cc(F)cc2Cl)c(F)c1` [compound 192]: the “Test C rating (% disease control)” value in series [9] is given as 0%. Also, the “Test F rating (% disease control)” value in series [1] is 100%. Further, the “Test G rating (% disease control)” value in series [2] stood at 0%. Further, the “Test H rating (% disease control)” value in series [3] amounted to 65%. The “Test A rating (% disease control)” value in series [4] stood at 33%. For the same compound, the “Test B rating (% disease control)” value in series [5] is listed as 66%. Further, the “Test I rating (% disease control)” value in series [6] was 35%. Also, the “Test E rating (% disease control)” value in [7] is given as 0%.

Regarding `CCOc1cc(F)c(-c2c(C)nn(C)c2Nc2c(F)cc(F)cc2Cl)c(F)c1` [compound 196], the “Test C rating (% disease control)” value in series [9] came to 0%. For the same compound, in [1], the “Test F rating (% disease control)” value was 100%. Moreover, the “Test G rating (% disease control)” value in [2] is 0%. Moreover, in series [3], the “Test H rating (% disease control)” value was 94%. Also, the “Test A rating (% disease control)” value in series [4] came to 100%. In series [5], the “Test B rating (% disease control)” value is 100%. In series [6], the “Test I rating (% disease control)” value worked out at 100%. Also, the “Test E rating (% disease control)” value in [7] is given as 95%.

For the compound `CCOc1cc(F)c(-c2c(C)nn(C)c2Nc2c(F)cc(Cl)cc2F)c(F)c1` [compound 199], in series [9], the “Test C rating (% disease control)” value came out at 68%. Moreover, in [1], the “Test F rating (% disease control)” value is reported as 100%. The “Test G rating (% disease control)” value in [2] worked out at 0%. For the same compound, the “Test H rating (% disease control)” value in [3] was 83%. Besides, the “Test A rating (% disease control)” value in [4] was 100%. Moreover, the “Test B rating (% disease control)” value in [5] came to 100%. Also, the “Test I rating (% disease control)” value in [6] is given as 99%. Moreover, the “Test E rating (% disease control)” value in [7] amounted to 69%.

Turning to `CCOc1cc(F)c(-c2c(C)nn(C)c2Nc2c(Cl)cc(F)cc2Cl)c(F)c1` [compound 200], the “Test C rating (% disease control)” value in series [9] is listed as 31%. For the same compound, in series [1], the “Test F rating (% disease control)” value worked out at 100%. In series [2], the “Test G rating (% disease control)” value is given as 0%. The “Test H rating (% disease control)” value in [3] was 86%. Besides, the “Test A rating (% disease control)” value in [4] is given as 98%. For the same compound, in [5], the “Test B rating (% disease control)” value worked out at 97%. The “Test I rating (% disease control)” value in [6] amounted to 79%. Also, the “Test E rating (% disease control)” value in series [7] was 0%.

The record behind these values is US20170150719A1, “FUNGICIDAL PYRAZOLES AND THEIR MIXTURES” (E I DU PONT DE NEMOURS AND COMPANY, priority 2010, published 2017).
